Source: patent publication US9248131B2, “Aquaporin modulators and methods of using them for the treatment of edema and fluid imbalance” (THE ARIZONA BOARD OF REGENTS ON BEHALF OF THE UNIVERSITY OF …, priority 2006, dated 2016)

Key:
[1] = target: T1, native AQP4 in primary cultures of astroglia (Rattus norvegicus, UniProt P47863); assay: Astroglial swelling in primary hippocampal cultures after 50% hypotonic saline; type: cell-based; settings: 100 μM extracellular, 15 min preincubation
T1 construct: endogenous in cells; host or cells: rat primary hippocampal astroglial cultures
T1 sequence (P47863 whole entry): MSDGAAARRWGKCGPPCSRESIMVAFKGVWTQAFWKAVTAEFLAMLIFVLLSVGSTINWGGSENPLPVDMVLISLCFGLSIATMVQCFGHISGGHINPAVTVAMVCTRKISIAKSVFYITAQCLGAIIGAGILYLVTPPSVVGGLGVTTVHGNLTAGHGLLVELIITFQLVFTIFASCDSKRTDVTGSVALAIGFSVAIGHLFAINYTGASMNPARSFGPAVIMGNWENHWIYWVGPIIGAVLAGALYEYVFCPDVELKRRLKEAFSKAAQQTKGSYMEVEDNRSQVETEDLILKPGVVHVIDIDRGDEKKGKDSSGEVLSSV
Protocol: The role of native AQP4 as a target of block by bumetanide was tested in primary cultures of astroglia (FIG. 4). We compared the swelling responses of rat astroglial cells in primary hippocampal cultures after 15 min preincubation with or without drug. Swelling was induced by rapid perfusion of the culture plate with 50% hypotonic saline, either with or without extracellular bumetanide (100 μM) to match the preincubation condition. Glial cells were identified by morphological comparison with cells positive for a glial-specific marker (GFAP). Time-lapse images were taken at 15 second intervals before and during hypotonic challenge. The response was determined by the change in soma area as a function of time, as visualized by time-lapse digital imaging (Olympus MagnaFire™ camera and image acquisition software) using an inverted phase contrast microscope (Nikon); data were analyzed by Scion Image (NIH) software. Each culture was used for only one swelling trial. […]
FIG. 3 illustrates the protective effect of bumetanide on astroglial swelling in primary hippocampal cultures (14-15 days in vitro) after exposure to 50% hypotonic saline at time zero. Plot (left): Cell area visualized by phase contrast microscopy, standardized to the initial volume quantified by Scion Image (NIH) software. […]

[2] = target: T2, AQP4 (Homo sapiens, UniProt P55087); assay: Oocyte swelling assay: water permeability (Pf) of AQP4-expressing oocytes by videomicroscopy, block or % stimulation; type: cell-based
T2 construct: expressed in transfected cells; host or cells: Xenopus oocytes
T2 sequence (P55087 whole entry, species assumed): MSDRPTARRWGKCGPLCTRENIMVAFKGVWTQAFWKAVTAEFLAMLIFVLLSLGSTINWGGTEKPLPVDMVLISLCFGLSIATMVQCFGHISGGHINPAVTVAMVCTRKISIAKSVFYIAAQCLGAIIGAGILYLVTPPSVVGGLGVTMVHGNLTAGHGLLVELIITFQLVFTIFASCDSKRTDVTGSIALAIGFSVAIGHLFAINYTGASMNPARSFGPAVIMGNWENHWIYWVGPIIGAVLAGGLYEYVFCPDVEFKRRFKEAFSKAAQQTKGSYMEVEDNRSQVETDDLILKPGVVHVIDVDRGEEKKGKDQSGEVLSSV
Description: A method for screening compounds for their ability to modulate aquaporin activity based on a water permeability assay in Xenopus oocytes expressing aquaporins which is used to identify, assess, and characterize compounds that either block or stimulate the aquaporin channels including AQP1, AQP4 and AQP9 channels.
Selection rationale and methodology. The ability of compounds, analogs and/or agents to block an aquaporin channel was quantified by videomicroscopic analyses of cross-sectional area of AQP-expressing oocytes as a function of time in a defined osmotic gradient, allowing the calculation of the water permeability factor (Pf), statistical evaluation of significant differences in the rate of water entry, and definition of dose response curves with IC50 values (concentration required for half-maximal block).
This compound evaluation method has been utilized with AQP1,-4,-5, and -9 channels. Observations of channel stimulation were made using the same assay method, however, the results were reported as % stimulation over control at a given concentration. […] TEA is known as a blocker of K^+ channel subtypes and nicotinic acetylcholine receptors. TEA sensitivity of AQP1 was removed by site-directed mutagenesis of tyrosine 186 to phenylalanine (Y186F) in the outer vestibule of the water pore, and confirmed that the inhibitory action of TEA is not due to nonspecific effects on endogenous channels (Brooks et al., 2000).

[3] = test system: ischemia-induced cerebral edema (MCAO); settings: cited from earlier work
[4] = target: T3, Na—K—Cl cotransporter (NKCC1) (Mus musculus, UniProt P55012); settings: read-out: IC50 (half-maximal blocking concentration) against Na—K—Cl cotransporter; mouse kidney collecting duct cell line; cited from earlier work
T3 sequence (P55012 1-1205): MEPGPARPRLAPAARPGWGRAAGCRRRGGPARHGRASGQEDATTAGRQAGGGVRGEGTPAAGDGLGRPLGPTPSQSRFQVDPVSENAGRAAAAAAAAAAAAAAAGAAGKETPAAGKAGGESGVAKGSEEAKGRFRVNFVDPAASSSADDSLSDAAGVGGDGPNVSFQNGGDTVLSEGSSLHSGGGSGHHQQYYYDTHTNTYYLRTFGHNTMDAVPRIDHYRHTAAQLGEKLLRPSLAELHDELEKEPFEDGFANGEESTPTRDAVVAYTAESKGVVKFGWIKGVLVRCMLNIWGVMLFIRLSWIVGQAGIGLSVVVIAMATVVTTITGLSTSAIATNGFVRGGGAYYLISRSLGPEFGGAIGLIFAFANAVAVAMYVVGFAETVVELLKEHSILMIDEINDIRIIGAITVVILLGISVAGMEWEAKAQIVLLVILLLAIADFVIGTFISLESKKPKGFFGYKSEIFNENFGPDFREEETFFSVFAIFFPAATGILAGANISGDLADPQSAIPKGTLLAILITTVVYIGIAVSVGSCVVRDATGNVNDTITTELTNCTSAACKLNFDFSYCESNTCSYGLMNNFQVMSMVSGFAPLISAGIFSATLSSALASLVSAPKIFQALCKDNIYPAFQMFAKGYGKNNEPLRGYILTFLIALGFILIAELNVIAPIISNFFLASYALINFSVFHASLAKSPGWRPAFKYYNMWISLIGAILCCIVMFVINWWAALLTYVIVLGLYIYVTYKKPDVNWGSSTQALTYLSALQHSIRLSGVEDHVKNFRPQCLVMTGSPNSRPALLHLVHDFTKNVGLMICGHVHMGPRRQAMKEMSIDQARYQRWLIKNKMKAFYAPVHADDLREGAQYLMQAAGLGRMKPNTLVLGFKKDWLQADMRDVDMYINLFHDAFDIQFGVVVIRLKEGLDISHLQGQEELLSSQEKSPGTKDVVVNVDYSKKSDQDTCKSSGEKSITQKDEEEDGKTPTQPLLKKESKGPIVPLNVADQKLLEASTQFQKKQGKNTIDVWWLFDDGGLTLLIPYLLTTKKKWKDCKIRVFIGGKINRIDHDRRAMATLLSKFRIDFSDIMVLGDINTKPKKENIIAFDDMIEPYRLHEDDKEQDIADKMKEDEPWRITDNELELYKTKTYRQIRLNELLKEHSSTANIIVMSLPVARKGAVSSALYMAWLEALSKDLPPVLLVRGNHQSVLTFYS

glial initial swelling (soma area) [1]: reduced
regulatory volume decrease (RVD) [1]: reduced
block of swelling rate in AQP4-expressing oocytes ([2]; extracellular application): Dose-dependent block
block of swelling in AQP4-expressing oocytes ([2]; internal injection into the oocyte (intracellular)): improved block at lower concentrations
Compound: CCCCNc1cc(C(=O)O)cc(S(N)(=O)=O)c1Oc1ccccc1 [bumetanide]
ischemia-induced cerebral edema ([3]; 30-mg/kg dose, rats, MCAO): effectively reduced ischemia-induced cerebral edema
edema formation, magnetic resonance diffusion-weighted imaging ([3]; intravenous, first 3 hours of MCAO-induced cerebral ischemia): reduced edema formation
lowest effective dose ([3]; rats, MCAO, reduction of edema): 7.6 mg/kg
IC50 [4]: 0.33 µM
